How the values were obtained:
Capivasertib = compound: C1CN(CCC1(C(=O)N[C@@H](CCO)C2=CC=C(C=C2)Cl)N)C3=NC=NC4=C3C=CN4 [Capivasertib]; conditions: max 10 µM
Procedure, shortened: (§1)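 Following 24 hours at 37°C and 5% CO2, cancer cell lines in 1536-well plates with 7.5 μl DMEM/F12 or RPMI and 10% FBS were dosed for 72 hours, final DMSO typically being 0.2%. CellTiter-Glo 2.0 luminescence, scaled between blank-well and DMSO-well means, gave the viability readout. Dose responses were fitted to a two-parameter logistic curve with a non-linear mixed effects model, and the single-agent IC50 was derived from this fit.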

AZD1775 = compound: C=CCn1c(=O)c2cnc(Nc3ccc(N4CCN(C)CC4)cc3)nc2n1-c1cccc(C(C)(C)O)n1 [AZD1775]; conditions: max 3 µM
Procedure, shortened: as §1

Trametinib = compound: CC(=O)Nc1cccc(-n2c(=O)n(C3CC3)c(=O)c3c(Nc4ccc(I)cc4F)n(C)c(=O)c(C)c32)c1 [Trametinib]; conditions: max 1 µM
Procedure, shortened: as §1

Palbociclib = compound: CC(=O)c1c(C)c2cnc(Nc3ccc(N4CCNCC4)cn3)nc2n(C2CCCC2)c1=O [Palbociclib]; conditions: max 10 µM
Procedure, shortened: as §1

AZD1390 = compound: CC(C)n1c(=O)n(C)c2cnc3cc(F)c(-c4ccc(OCCCN5CCCCC5)nc4)cc3c21 [AZD1390]; conditions: max 0.3 µM
Procedure, shortened: as §1

Venetoclax = compound: CC1(C)CCC(CN2CCN(c3ccc(C(=O)NS(=O)(=O)c4ccc(NCC5CCOCC5)c([N+](=O)[O-])c4)c(Oc4cnc5[nH]ccc5c4)c3)CC2)=C(c2ccc(Cl)cc2)C1 [Venetoclax]; conditions: max 1 µM
Procedure, shortened: as §1

Dasatinib = compound: CC1=C(C(=CC=C1)Cl)NC(=O)C2=CN=C(S2)NC3=CC(=NC(=N3)C)N4CCN(CC4)CCO [Dasatinib]; conditions: max 2 µM
Procedure, shortened: as §1

SG3199 = compound: CC1=CN2[C@@H](C1)C=NC3=CC(=C(C=C3C2=O)OC)OCCCCCOC4=C(C=C5C(=C4)N=C[C@@H]6CC(=CN6C5=O)C)OC [SG3199]; conditions: max 0.001 µM
Procedure, shortened: as §1

AZD2811 = compound: CCN(CCO)CCCOc1ccc2c(Nc3cc(CC(=O)Nc4cccc(F)c4)[nH]n3)ncnc2c1 [AZD2811]; conditions: max 1 µM
Procedure, shortened: as §1

SN-38 = compound: CCc1c2c(nc3ccc(O)cc13)-c1cc3c(c(=O)n1C2)COC(=O)[C@]3(O)CC [SN-38]; conditions: max 0.3 µM
Procedure, shortened: as §1

AZD0156 = compound: CN(C)CCCOc1ccc(-c2ccc3ncc4c(c3c2)n(C2CCOCC2)c(=O)n4C)cn1 [AZD0156]; conditions: max 3 µM
Procedure, shortened: as §1

AZD4320 = compound: CN(CC[C@H](CSC1=CC=CC=C1)NC2=C(C=C(C=C2)S(=O)(=O)NC(=O)C3=CC=C(C=C3)N4CCC(CC4)[C@H](C5=CC=CC=C5C6=CC=C(C=C6)Cl)O)S(=O)(=O)C(F)(F)F)CCO [AZD4320]; conditions: max 1 µM
Procedure, shortened: as §1

Alisertib = compound: COc1cc(Nc2ncc3c(n2)-c2ccc(Cl)cc2C(c2c(F)cccc2OC)=NC3)ccc1C(=O)O [Alisertib]; conditions: max 10 µM
Procedure, shortened: as §1

Gefitinib = compound: COc1cc2ncnc(Nc3ccc(F)c(Cl)c3)c2cc1OCCCN1CCOCC1 [Gefitinib]; conditions: max 10 µM
Procedure, shortened: as §1

Prexasertib = compound: COc1cccc(OCCCN)c1-c1cc(Nc2cnc(C#N)cn2)n[nH]1 [Prexasertib]; conditions: max 1 µM
Procedure, shortened: as §1

Doxorubicin = compound: COc1cccc2c1C(=O)c1c(O)c3c(c(O)c1C2=O)C[C@@](O)(C(=O)CO)C[C@@H]3O[C@H]1C[C@H](N)[C@H](O)[C@H](C)O1 [Doxorubicin]; conditions: max 1 µM
Procedure, shortened: as §1

AZD5153 = compound: COc1nnc2ccc(N3CCC(c4ccc(OCCN5CCN(C)C(=O)[C@H]5C)cc4)CC3)nn12 [AZD5153]; conditions: max 1 µM
Procedure, shortened: as §1

Lapatinib = compound: CS(=O)(=O)CCNCc1ccc(-c2ccc3ncnc(Nc4ccc(OCc5cccc(F)c5)c(Cl)c4)c3c2)o1 [Lapatinib]; conditions: max 10 µM
Procedure, shortened: as §1

AZD8186 = compound: C[C@@H](Nc1cc(F)cc(F)c1)c1cc(C(=O)N(C)C)cc2c(=O)cc(N3CCOCC3)oc12 [AZD8186]
Procedure, shortened: as §1

Crizotinib = compound: C[C@@H](Oc1cc(-c2cnn(C3CCNCC3)c2)cnc1N)c1c(Cl)ccc(F)c1Cl [Crizotinib]; conditions: max 10 µM
Procedure, shortened: as §1

Savolitinib = compound: C[C@@H](c1ccc2nccn2c1)n1nnc2ncc(-c3cnn(C)c3)nc21 [Savolitinib]; conditions: max 1 µM
Procedure, shortened: as §1

AZD6738 = compound: C[C@@H]1COCCN1C2=NC(=NC(=C2)C3(CC3)[S@](=N)(=O)C)C4=C5C=CNC5=NC=C4 [AZD6738]; conditions: max 10 µM
Procedure, shortened: as §1

AZD5991 = compound: Cc1c2c(nn1C)CSCc1cc(n(C)n1)CSc1cc(c3ccccc3c1)OCCCc1c(C(=O)O)n(C)c3c-2c(Cl)ccc13 [AZD5991]; conditions: max 1 µM
Procedure, shortened: as §1

AZD7648 = compound: Cc1cc2ncnn2cc1Nc1ncc2c(n1)n(C1CCOCC1)c(=O)n2C [AZD7648]; conditions: max 10 µM
Procedure, shortened: as §1

Taselisib = compound: Cc1nc(-c2cn3c(n2)-c2ccc(-c4cnn(C(C)(C)C(N)=O)c4)cc2OCC3)n(C(C)C)n1 [Taselisib]; conditions: max 10 µM
Procedure, shortened: as §1

Selumetinib = compound: Cn1cnc2c(F)c(Nc3ccc(Br)cc3Cl)c(C(=O)NOCCO)cc21 [Selumetinib]; conditions: max 10 µM
Procedure, shortened: as §1

Olaparib = compound: O=C(c1cc(Cc2n[nH]c(=O)c3ccccc23)ccc1F)N1CCN(C(=O)C2CC2)CC1 [Olaparib]; conditions: max 10 µM
Procedure, shortened: as §1

Carboplatin = compound: C1CC(C1)(C(=O)[O-])C(=O)[O-].N.N.[Pt+2] [Carboplatin]; conditions: max 10 µM
Procedure, shortened: as §1

AZD5363 = compound: C1CN(CCC1(C(=O)N[C@@H](CCO)C2=CC=C(C=C2)Cl)N)C3=NC=NC4=C3C=CN4 [AZD5363]; conditions: max 10 µM
Procedure, shortened: as §1

Paclitaxel = compound: CC(=O)O[C@H]1C(=O)[C@@]2(C)[C@H]([C@H](OC(=O)c3ccccc3)[C@]3(O)C[C@H](OC(=O)[C@H](O)[C@@H](NC(=O)c4ccccc4)c4ccccc4)C(C)=C1C3(C)C)[C@]1(OC(C)=O)CO[C@@H]1C[C@@H]2O [Paclitaxel]; conditions: max 3 µM
Procedure, shortened: as §1

Etoposide = compound: COc1cc([C@@H]2c3cc4c(cc3[C@@H](O[C@@H]3O[C@@H]5CO[C@@H](C)O[C@H]5[C@H](O)[C@H]3O)[C@H]3COC(=O)[C@H]23)OCO4)cc(OC)c1O [Etoposide]; conditions: max 10 µM
Procedure, shortened: as §1

SRA737 = compound: N#Cc1cnc(Nc2cc(NC[C@H]3CNCCO3)c(C(F)(F)F)cn2)cn1 [SRA737]; conditions: max 10 µM
Procedure, shortened: as §1

MK-2206 = compound: NC1(c2ccc(-c3nc4ccn5c(=O)[nH]nc5c4cc3-c3ccccc3)cc2)CCC1 [MK-2206]; conditions: max 10 µM
Procedure, shortened: as §1

Gemcitabine = compound: Nc1ccn([C@@H]2O[C@H](CO)[C@@H](O)C2(F)F)c(=O)n1 [Gemcitabine]; conditions: max 0.3 µM
Procedure, shortened: as §1

[1] = compound: O=C(Nc1ccc2[nH]nc(-c3ccncc3)c2c1)[C@@H]1CCN(CC(=O)N2CCN(c3ccc(-c4ncccn4)cc3)CC2)C1; conditions: max 5 µM
Procedure, shortened: as §1

5-Fluorouracil = compound: O=c1[nH]cc(F)c(=O)[nH]1 [5-Fluorouracil]; conditions: max 20 µM
Procedure, shortened: as §1

| Cell Line | IC50, cell viability 72 h (Capivasertib) | IC50, cell viability 72 h (AZD1775) | IC50, cell viability 72 h (Trametinib) | IC50, cell viability 72 h (Palbociclib) | IC50, cell viability 72 h (AZD1390) | IC50, cell viability 72 h (Venetoclax) | IC50, cell viability 72 h (Dasatinib) | IC50, cell viability 72 h (SG3199) | IC50, cell viability 72 h (AZD2811) | IC50, cell viability 72 h (SN-38) | IC50, cell viability 72 h (AZD0156) | IC50, cell viability 72 h (AZD4320) | IC50, cell viability 72 h (Alisertib) | IC50, cell viability 72 h (Gefitinib) | IC50, cell viability 72 h (Prexasertib) | IC50, cell viability 72 h (Doxorubicin) | IC50, cell viability 72 h (AZD5153) | IC50, cell viability 72 h (Lapatinib) | IC50, cell viability 72 h (AZD8186; max 3 µM) | IC50, cell viability 72 h (Crizotinib) | IC50, cell viability 72 h (Savolitinib) | IC50, cell viability 72 h (AZD6738) | IC50, cell viability 72 h (AZD5991) | IC50, cell viability 72 h (AZD7648) | IC50, cell viability 72 h (Taselisib) | IC50, cell viability 72 h (Selumetinib) | IC50, cell viability 72 h (Olaparib) | IC50, cell viability 72 h (Carboplatin) | IC50, cell viability 72 h (AZD5363) | IC50, cell viability 72 h (Paclitaxel) | IC50, cell viability 72 h (Etoposide) | IC50, cell viability 72 h (AZD8186; max 10 µM) | IC50, cell viability 72 h (SRA737) | IC50, cell viability 72 h (MK-2206) | IC50, cell viability 72 h (Gemcitabine) | IC50, cell viability 72 h [1] | IC50, cell viability 72 h (5-Fluorouracil) |
| --- | --- | --- | --- | --- | --- | --- | --- | --- | --- | --- | --- | --- | --- | --- | --- | --- | --- | --- | --- | --- | --- | --- | --- | --- | --- | --- | --- | --- | --- | --- | --- | --- | --- | --- | --- | --- | --- |
| SNU-1 (Gastric Carcinoma) | > 10 µM | 1350 nM | 757 nM | > 10 µM | > 300 nM | > 1000 nM | > 2000 nM | > 1 nM | > 1000 nM | 12.9 nM | > 3000 nM | > 1000 nM | > 10 µM | > 10 µM | 97.1 nM | 237 nM | 265 nM | > 10 µM | > 3000 nM | > 10 µM | > 1000 nM | 5.01 µM | 938 nM | > 10 µM | 9.03 µM | > 10 µM | > 10 µM |  |  |  |  |  |  |  |  |  |  |
| NCI-H835 (Other Solid Carcinomas) |  | 1100 nM | > 1000 nM | > 10 µM | > 300 nM | > 1000 nM | > 2000 nM | > 1 nM | > 1000 nM | > 300 nM | > 3000 nM | 218 nM |  | > 10 µM | > 1000 nM | > 1000 nM | > 1000 nM | > 10 µM |  | 9.99 µM | > 1000 nM | > 10 µM | > 1000 nM | > 10 µM | 5.25 µM | > 10 µM | > 10 µM | > 10 µM | > 10 µM | 2770 nM | > 10 µM | > 10000 nM | > 10 µM | > 10 µM | > 300 nM | > 5 µM | > 20 µM |
| NCI-H1975 (Lung Adenocarcinoma) | 3.84 µM | 1620 nM | > 1000 nM | > 10 µM | > 300 nM | > 1000 nM | 1010 nM | > 1 nM | > 1000 nM | > 300 nM | > 3000 nM | > 1000 nM | > 10 µM | > 10 µM | > 1000 nM | 497 nM | 359 nM | > 10 µM | > 3000 nM | > 10 µM | > 1000 nM | > 10 µM | > 1000 nM | > 10 µM | 1.22 µM | > 10 µM | > 10 µM |  |  |  |  |  |  |  |  |  |  |

Source: the supplement of paper PMC11061612
